Results published in ChEMBL document CHEMBL1201862, “PubChem BioAssay data set” (2004).
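Where inhibition never reached the appropriate level, the endpoint shown equals the highest concentration tested. Otherwise, values were interpolated linearly from a five-concentration, 48-hour dose response in 96-well plates. Here, GI50 denotes the concentration required for 50% inhibition of growth.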 Calls of active or inactive are those of the source. Rule as the data show it: active = GI50 up to about 1.1 µM and inactive = higher.

Key:
Experiment in all cases: DTP human tumour cell line panel, 48 h
786-0 = system: 786-0
A498 = system: A498
A549 = system: A549
ACHN = system: ACHN
BT-549 = system: BT-549
CAKI-1 = system: CAKI-1
CCRF-CEM = system: CCRF-CEM
COLO 205 = system: COLO 205
DU-145 = system: DU-145
EKVX = system: EKVX
HCC 2998 = system: HCC 2998
HCT-116 = system: HCT-116
HCT-15 = system: HCT-15
HL-60 = system: HL-60
HOP-62 = system: HOP-62
HOP-92 = system: HOP-92
HT-29 = system: HT-29
Hs-578T = system: Hs-578T
IGROV-1 = system: IGROV-1
K562 = system: K562
KM12 = system: KM12
LOX IMVI = system: LOX IMVI
M14 = system: M14
MCF7 = system: MCF7
MDA-MB-231 = system: MDA-MB-231
MDA-MB-435 = system: MDA-MB-435
MDA-N = system: MDA-N
MOLT-4 = system: MOLT-4
Malme-3M = system: Malme-3M
NCI-H226 = system: NCI-H226
NCI-H23 = system: NCI-H23
NCI-H460 = system: NCI-H460
NCI-H522 = system: NCI-H522
NCI/ADR-RES = system: NCI/ADR-RES
OVCAR-3 = system: OVCAR-3
OVCAR-4 = system: OVCAR-4
OVCAR-5 = system: OVCAR-5
OVCAR-8 = system: OVCAR-8
PC-3 = system: PC-3
RPMI-8226 = system: RPMI-8226
RXF 393 = system: RXF 393
SF-268 = system: SF-268
SF-295 = system: SF-295
SF-539 = system: SF-539
SK-MEL-28 = system: SK-MEL-28
SK-MEL-2 = system: SK-MEL-2
SK-MEL-5 = system: SK-MEL-5
SK-OV-3 = system: SK-OV-3
SN12C = system: SN12C
SNB-19 = system: SNB-19
SNB-75 = system: SNB-75
SW-620 = system: SW-620
T47D = system: T47D
TK-10 = system: TK-10
U-251 = system: U-251
UACC-257 = system: UACC-257
UACC-62 = system: UACC-62
UO-31 = system: UO-31

Measured: GI50

O=C(/C=C/c1ccccc1)CCN1CCN(CCC(=O)/C=C/c2ccccc2)CC1
inactive: 786-0 6.05 µM | A498 18.9 µM | A549 30.9 µM | ACHN 16 µM | BT-549 15.1 µM | CAKI-1 17.2 µM | CCRF-CEM 3.29 µM | COLO 205 16.4 µM | DU-145 17.6 µM | EKVX 18.6 µM | HCC 2998 16.7 µM | HCT-116 2.16 µM | HL-60 3.64 µM | HOP-62 22.6 µM | HOP-92 19.6 µM | HT-29 14.3 µM | Hs-578T 10.4 µM | IGROV-1 18.2 µM | K562 3.97 µM | KM12 4.82 µM | LOX IMVI 2.38 µM | M14 11.7 µM | MCF7 5.81 µM | MDA-MB-231 5.5 µM | MDA-MB-435 3.72 µM | MDA-N 2.19 µM | MOLT-4 4.47 µM | Malme-3M 16.2 µM | NCI-H226 16.2 µM | NCI-H23 16 µM | NCI-H460 15.2 µM | NCI-H522 13.2 µM | NCI/ADR-RES 24.7 µM | OVCAR-3 16.8 µM | OVCAR-4 16.5 µM | OVCAR-5 16.7 µM | OVCAR-8 16.3 µM | PC-3 16.8 µM | RPMI-8226 > 100 µM | RXF 393 13.7 µM | SF-268 13.8 µM | SF-295 17.2 µM | SF-539 14.9 µM | SK-MEL-28 14.2 µM | SK-MEL-2 17.9 µM | SK-MEL-5 14.7 µM | SK-OV-3 13.5 µM | SN12C 10.1 µM | SNB-19 17.6 µM | SNB-75 15.8 µM | SW-620 4.67 µM | T47D 14.9 µM | TK-10 16.4 µM | U-251 16.7 µM | UACC-257 11.5 µM | UACC-62 16.3 µM | UO-31 16.9 µM
10.9 µM: HCT-15

C\C(=N/N=C1/C(=C\N(C)C)C(=O)NC(=O)N1C)c1ccc(Cl)cc1
inactive: 786-0 > 100 µM | A498 > 100 µM | A549 87.7 µM | ACHN > 100 µM | BT-549 > 100 µM | CAKI-1 76.4 µM | CCRF-CEM 15.8 µM | COLO 205 > 100 µM | DU-145 > 100 µM | EKVX > 100 µM | HCC 2998 > 100 µM | HCT-116 74.1 µM | HOP-62 > 100 µM | HOP-92 > 100 µM | HT-29 > 100 µM | Hs-578T > 100 µM | IGROV-1 53 µM | K562 > 100 µM | KM12 44.6 µM | LOX IMVI 58.2 µM | M14 43.2 µM | MCF7 > 100 µM | MDA-MB-231 > 100 µM | MDA-MB-435 37.6 µM | MDA-N > 100 µM | MOLT-4 > 100 µM | Malme-3M > 100 µM | NCI-H226 68.5 µM | NCI-H23 > 100 µM | NCI-H460 > 100 µM | NCI-H522 62.2 µM | NCI/ADR-RES > 100 µM | OVCAR-3 > 100 µM | OVCAR-4 > 100 µM | OVCAR-5 69.2 µM | OVCAR-8 > 100 µM | PC-3 72.1 µM | RPMI-8226 26.9 µM | RXF 393 > 100 µM | SF-268 > 100 µM | SF-295 54.6 µM | SF-539 > 100 µM | SK-MEL-28 > 100 µM | SK-MEL-2 57.9 µM | SK-MEL-5 > 100 µM | SK-OV-3 > 100 µM | SN12C > 100 µM | SNB-19 > 100 µM | SNB-75 32.6 µM | SW-620 89.7 µM | T47D 82.4 µM | TK-10 57.3 µM | U-251 > 100 µM | UACC-257 > 100 µM | UACC-62 > 100 µM | UO-31 > 100 µM
> 100 µM: HCT-15
